# Reference: PMC8100298, “Histone deacetylase inhibitor resminostat in combination with sorafenib counteracts platelet-mediated pro-tumoral effects in hepatocellular carcinoma” (Scientific Reports, 2021)
# System: HCC cells
# Assay: Western blots for acetylated α-Tubulin and p21
# Assay type: cell-based
# Conditions: 1 µM or 3 µM, 24 hours (Fig. S1C)
# Procedure: C. Western blots for acetylated α-Tubulin, total α-Tubulin, p21 and GAPDH (loading control).
# Cells were treated with vehicle control (0.1 % DMSO), 1 µM or 3 µM resminostat for 24 hours. Grouped blots were composed from cropped parts of individual blots for each antibody. Original blots with exposures and indicated cropped areas can be found in the supplementary information.
# D. Cell line screen determining the EC50s of resminostat in 74 cell lines representing 14 different ca ncer indications. In addition, peripheral blood mononuclear cells (PBMCs) from healthy donors were tested. Each dot represents an EC50.
# (100×, 78440; Thermo Scientific, Massachusetts, US). Following incubation for 1 h at 4°C, […]
# The protein concentration of the
# Fisher Scientific, Massachusetts, US ). Equal amounts of protein lysates and a pre-stained […]
# US) and transferred to PVDF membranes. The membranes were probed using the relevant […]
# of the blots to X-ray films. […]
# to adjust brightness and contrast across entire images. No other image manipulations were […]
# intracellular FACS staining.
compound,measurement,value
"CN(C)Cc1ccc(S(=O)(=O)n2ccc(/C=C/C(=O)NO)c2)cc1 [resminostat, Resminostat]",acetylation of α-Tubulin,hyperacetylation
same,p21 protein,accumulation
